According to ChEMBL document CHEMBL1149046, “Insect Inhibitory Steroidal Saccharide Esters from Physalis peruviana” (J Nat Prod, 1994):

How the values were obtained:
Assay type in all cases: organism-based
Conditions in all cases: artemia, in vivo
[1] = Toxicity in brine shrimp at 250 ppm
[2] = Toxicity in brine shrimp at 500 ppm
[3] = Toxicity in brine shrimp at 1000 ppm

CC(=O)OC[C@H]1O[C@@H](OC(=O)/C(C)=C(\C)C[C@@H](O)[C@@H](C)[C@H]2CC[C@H]3[C@@H]4CC=C5C[C@@H](O)C[C@H](O)[C@]5(C)[C@H]4[C@@H](O)C[C@]23C)[C@H](O[C@@H]2O[C@H](CO)[C@@H](O)[C@H](O)[C@H]2O)[C@@H](O)[C@@H]1O
100%: survival at 250 ppm [1] | survival at 500 ppm [2] | survival at 1000 ppm [3]

C/C(C[C@@H](O)[C@@H](C)[C@H]1CC[C@H]2[C@@H]3CC=C4C[C@@H](O)C[C@H](O)[C@]4(C)[C@H]3[C@@H](O)C[C@]12C)=C(/C)C(=O)O[C@@H]1O[C@H](CO)[C@@H](O)[C@H](O)[C@H]1O
100%: survival at 250 ppm [1] | survival at 500 ppm [2] | survival at 1000 ppm [3]

CC(=O)OC[C@H]1O[C@@H](OC(=O)/C(C)=C(\C)C[C@@H](O)[C@@H](C)[C@H]2CC[C@H]3[C@@H]4CC=C5C[C@@H](O[C@@H]6O[C@H](CO)[C@@H](O)[C@H](O)[C@H]6O)C[C@H](O)[C@]5(C)[C@H]4CC[C@]23C)[C@H](O[C@@H]2O[C@H](COC(C)=O)[C@@H](O[C@@H]3O[C@H](CO)[C@@H](O)[C@H](O)[C@H]3O)[C@H](O)[C@H]2O)[C@@H](O)[C@@H]1O
100%: survival at 250 ppm [1] | survival at 500 ppm [2] | survival at 1000 ppm [3]

CC(=O)OC[C@H]1O[C@@H](OC(=O)/C(C)=C(\C)C[C@@H](O)[C@@H](C)[C@H]2CC[C@H]3[C@@H]4CC=C5C[C@@H](O[C@@H]6O[C@H](CO)[C@@H](O)[C@H](O)[C@H]6O)C[C@H](O)[C@]5(C)[C@H]4CC[C@]23C)[C@H](O[C@@H]2O[C@H](CO)[C@@H](O[C@@H]3O[C@H](CO)[C@@H](O)[C@H](O)[C@H]3O)[C@H](O)[C@H]2O)[C@@H](O)[C@@H]1O
100%: survival at 250 ppm [1] | survival at 500 ppm [2] | survival at 1000 ppm [3]

CC(=O)OC[C@H]1O[C@@H](OC(=O)/C(C)=C(\C)C[C@@H](O)[C@@H](C)[C@H]2CC[C@H]3[C@@H]4CC=C5C[C@@H](O[C@@H]6O[C@H](CO)[C@@H](O)[C@H](O)[C@H]6O)C[C@H](O)[C@]5(C)[C@H]4CC[C@]23C)[C@H](O[C@@H]2O[C@H](CO)[C@@H](O)[C@H](O)[C@H]2O)[C@@H](O)[C@@H]1O
100%: survival at 250 ppm [1] | survival at 500 ppm [2] | survival at 1000 ppm [3]

C/C(C[C@@H](O)[C@@H](C)[C@H]1CC[C@H]2[C@@H]3CC=C4C[C@@H](O[C@@H]5O[C@H](CO)[C@@H](O)[C@H](O)[C@H]5O)C[C@H](O)[C@]4(C)[C@H]3CC[C@]12C)=C(/C)C(=O)O[C@@H]1O[C@H](CO)[C@@H](O)[C@H](O)[C@H]1O[C@@H]1O[C@H](CO)[C@@H](O)[C@H](O)[C@H]1O
100%: survival at 250 ppm [1] | survival at 500 ppm [2] | survival at 1000 ppm [3]
